Data: US9604975B2, “Indolyl-pyridone derivatives having checkpoint kinase 1 inhibitory activity” (Vernalis (R&D) Ltd., priority 2009, dated 2017)

Biological target: T1, CHK1 (Homo sapiens, UniProt O14757)
T1 construct: His; purchased Invitrogen
T1 sequence (O14757 1-476): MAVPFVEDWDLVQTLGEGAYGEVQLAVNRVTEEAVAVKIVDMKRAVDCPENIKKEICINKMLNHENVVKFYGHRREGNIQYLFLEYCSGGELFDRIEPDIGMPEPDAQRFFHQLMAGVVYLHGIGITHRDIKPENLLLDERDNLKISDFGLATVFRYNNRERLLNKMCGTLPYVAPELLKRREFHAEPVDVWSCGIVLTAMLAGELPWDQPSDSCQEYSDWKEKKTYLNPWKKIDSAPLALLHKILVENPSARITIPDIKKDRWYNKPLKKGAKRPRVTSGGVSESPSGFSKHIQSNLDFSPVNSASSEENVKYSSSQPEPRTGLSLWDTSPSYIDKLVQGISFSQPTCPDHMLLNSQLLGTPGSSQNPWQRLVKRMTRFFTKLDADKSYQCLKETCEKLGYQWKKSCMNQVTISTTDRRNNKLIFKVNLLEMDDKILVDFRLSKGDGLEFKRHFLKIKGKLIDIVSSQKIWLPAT
Test: CHK1 Enzyme Assay (phosphorylation of Chktide peptide, 33P-ATP filter assay)
Assay type: biochemical
Settings: 12.5 nM His-CHK1, 0.01 mM ATP, 40 minutes at 30° C.; read-out: CHK1 Enzyme Activity (IC50 range)
In short: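 His-CHK1 (12.5 nM) phosphorylating 14.8 μM Chktide with 0.01 mM ATP plus 33P-γ-ATP, in 50 mM Hepes-NaOH pH 7.5 with 0.1 mg/mL BSA. Incubated with inhibitor for 40 min at 30 °C. Stopped with phosphoric acid; phosphopeptide captured on filter and counted by scintillation.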

Compound | IC50
Cc1ccc(Cn2cc(C(=O)Nc3c[nH]c(=O)c(-c4cc5cc(CN6CCC(CO)CC6)ccc5[nH]4)c3)cn2)cc1 [Example 39, 1-(4-Methyl-benzyl)-1H-pyrazole-4-carboxylic acid {5-[5-(4-hydroxymethyl-piperidin-1-ylmethyl)-1H-indol-2-yl]-6-oxo-1,6-dihydro-pyridin-3-yl}-amide] | < 100 nM
CN1CCN(Cc2ccc3[nH]c(-c4cc(NC(=O)c5cnn(Cc6ccc(Cl)cc6)c5)c[nH]c4=O)cc3c2)CC1 [Example 53, 1-(4-Chloro-benzyl)-1H-pyrazole-4-carboxylic acid {5-[5-(4-methyl-piperazin-1-ylmethyl)-1H-indol-2-yl]-6-oxo-1,6-dihydro-pyridin-3-yl}-amide] | < 100 nM
CN(Cc1ccc2[nH]c(-c3cc(NC(=O)c4cnn(Cc5ccccc5)c4)c[nH]c3=O)cc2c1)C1CCCCC1 [Example 77] | < 100 nM
Cc1ccc(Cn2cc(C(=O)Nc3c[nH]c(=O)c(-c4cc5cc(CN6CC(O)C6)ccc5[nH]4)c3)cn2)cc1 [Example 42, 1-(4-Methyl-benzyl)-1H-pyrazole-4-carboxylic acid {5-[5-(3-hydroxy-azetidin-1-ylmethyl)-1H-indol-2-yl]-6-oxo-1,6-dihydro-pyridin-3-yl}-amide] | < 100 nM
O=C(Nc1c[nH]c(=O)c(-c2cc3cc(CN4CC[C@@H](F)C4)ccc3[nH]2)c1)c1cnn(Cc2ccccc2)c1 [Example 174, 1-Benzyl-1H-pyrazole-4-carboxylic acid {5-[5-((R)-3-fluoro-pyrrolidin-1-ylmethyl)-1H-indol-2-yl]-6-oxo-1,6-dihydro-pyridin-3-yl}-amide] | < 100 nM
N#Cc1cccc(Cn2cc(NC(=O)c3c[nH]c(=O)c(-c4cc5ccccc5[nH]4)c3)cn2)c1 [Example 6, 5-(1H-Indol-2-yl)-6-oxo-1,6-dihydro-pyridine-3-carboxylic acid [1-(3-cyano-benzyl)-1H-pyrazol-4-yl]-amide] | 100 to 500 nM
O=C(Nc1cnn(Cc2ccc(F)c(F)c2)c1)c1c[nH]c(=O)c(-c2cc3cc(CN4CCC(O)CC4)ccc3[nH]2)c1 [Example 100, 5-[5-(4-Hydroxypiperidin-1-ylmethyl)-1H-indol-2yl]-6-oxo-1,6-dihydropyridine-3-carboxylic acid[1-(3,4-difluorobenzyl)-1H-pyrazol-4-yl]-amide] | < 100 nM
Cc1[nH]c(=O)c(-c2cc3ccccc3[nH]2)cc1NC(=O)c1cnn(Cc2ccc(F)c(F)c2)c1 [Example 33, 1-(3,4-Difluoro-benzyl)-1H-pyrazole-4-carboxylic acid [5-(1H-indol-2-yl)-2-methyl-6-oxo-1,6-dihydro-pyridin-3-yl]-amide] | 100 to 500 nM
CCNCc1ccc2[nH]c(-c3cc(NC(=O)c4cnn(Cc5ccc(F)cc5)c4)c[nH]c3=O)cc2c1 [Example 83, 1-(4-Fluoro-benzyl)-1H-pyrazole-4-carboxylic acid [5-(5-ethylaminomethyl-1H-indol-2-yl)-6-oxo-1,6-dihydro-pyridin-3-yl]-amide] | < 100 nM
O=C(Nc1cnn(Cc2ccc(F)c(F)c2)c1)c1c[nH]c(=O)c(-c2cc3cc(CN4CCC(F)CC4)ccc3[nH]2)c1 [Example 97, 5-[5-(4-Fluoro-piperidin-1-ylmethyl)-1H-indol-2-yl]-6-oxo-1,6-dihydro-pyridine-3-carboxylic acid [1-(3,4-difluoro-benzyl)-1H-pyrazol-4-yl]-amide] | < 100 nM
CCN(CC)CCCOc1ccc2[nH]c(-c3cc(NC(=O)c4cnn(Cc5ccc(C)cc5)c4)c[nH]c3=O)cc2c1 [Example 123, 1-(4-Methyl-benzyl)-1H-pyrazole-4-carboxylic acid {5-[5-(3-diethylamino-propoxy)-1H-indol-2-yl]-6-oxo-1,6-dihydro-pyridin-3-yl}-amide] | < 100 nM
CC1CN(Cc2ccc3[nH]c(-c4cc(NC(=O)c5cnn(Cc6ccccc6)c5)c[nH]c4=O)cc3c2)CCN1C (centres unmarked) [Example 70, 1-Benzyl-1H-pyrazole-4-carboxylic acid {5-[5-(3,4-dimethyl-piperazin-1-ylmethyl)-1H-indol-2-yl]-6-oxo-1,6-dihydro-pyridin-3-yl}-amide] | < 100 nM
CCN(CC)CCOc1ccc2[nH]c(-c3cc(NC(=O)c4cnn(Cc5ccccc5)c4)c[nH]c3=O)cc2c1 [Example 141, 1-Benzyl-1H-pyrazole-4-carboxylic acid {5-[5-(2-diethylamino-ethoxy)-1H-indol-2-yl]-6-oxo-1,6-dihydro-pyridin-3-yl}-amide] | < 100 nM
Cc1ccc(Cn2cc(C(=O)Nc3c[nH]c(=O)c(-c4cc5cc(CN6CCN(CCO)CC6)ccc5[nH]4)c3)cn2)cc1 [Example 62, 1-(4-Methyl-benzyl)-1H-pyrazole-4-carboxylic acid (5-{5-[4-(2-hydroxy-ethyl)-piperazin-1-ylmethyl]-1H-indol-2-yl}-6-oxo-1,6-dihydro-pyridin-3-yl)-amide] | < 100 nM
C[C@@H](c1ccccc1)n1cc(C(=O)Nc2c[nH]c(=O)c(-c3cc4ccccc4[nH]3)c2)cn1 [Example 160, 1-((S)-1-Phenyl-ethyl)-1H-pyrazole-4-carboxylic acid [5-(1H-indol-2-yl)-6-oxo-1,6-dihydro-pyridin-3-yl]-amide] | 100 to 500 nM
O=C(Nc1c[nH]c(=O)c(-c2cc3cc(CN4CCCCC4)ccc3[nH]2)c1)c1cnn(CCc2ccc(F)cc2)c1 [Example 95, 1-[2-(4-Fluoro-phenyl)-ethyl]-1H-pyrazole-4-carboxylic acid [6-oxo-5-(5-piperidin-1-ylmethyl-1H-indol-2-yl)-1,6-dihydro-pyridin-3-yl]-amide] | < 100 nM
O=C(Nc1c[nH]c(=O)c(-c2cc3cc(CN4CCC(F)CC4)ccc3[nH]2)c1)c1cnn(Cc2ccc(Cl)cc2)c1 [Example 47, 1-(4-Chloro-benzyl)-1H-pyrazole-4-carboxylic acid {5-[5-(4-fluoro-piperidin-1-ylmethyl)-1H-indol-2-yl]-6-oxo-1,6-dihydro-pyridin-3-yl}-amide] | < 100 nM
CC1CCN(Cc2ccc3[nH]c(-c4cc(NC(=O)c5cnn(Cc6ccc(F)cc6)c5)c[nH]c4=O)cc3c2)CC1 [Example 82, 1-(4-Fluoro-benzyl)-1H-pyrazole-4-carboxylic acid {5-[5-(4-methyl-piperidin-1-ylmethyl)-1H-indol-2-yl]-6-oxo-1,6-dihydro-pyridin-3-yl}-amide] | < 100 nM
CC(C)(COc1ccc2[nH]c(-c3cc(NC(=O)c4cnn(Cc5ccccc5)c4)c[nH]c3=O)cc2c1)CN1CCOCC1 [Example 184, 1-Benzyl-1H-pyrazole-4-carboxylic acid {5-[5-(2,2-dimethyl-3-morpholin-4-yl-propoxy)-1H-indol-2-yl]-6-oxo-1,6-dihydro-pyridin-3-yl}-amide] | < 100 nM
Cc1ccc(Cn2cc(C(=O)Nc3c[nH]c(=O)c(-c4cc5cc(OCCN6CCN(C)CC6)ccc5[nH]4)c3)cn2)cc1 [Example 126, 1-(4-Methyl-benzyl)-1H-pyrazole-4-carboxylic acid (5-{5-[2-(4-methyl-piperazin-1-yl)-ethoxy]-1H-indol-2-yl}-6-oxo-1,6-dihydro-pyridin-3-yl)-amide] | < 100 nM
O=C(Nc1cnn(Cc2ccc(F)c(F)c2)c1)c1c[nH]c(=O)c(-c2cc3cc(CN4CCCC4)ccc3[nH]2)c1 [Example 98, 6-oxo-5-(5-pyrrolidin-1-ylmethyl-1H-indol-2-yl)-1,6-dihydro-pyridine-3-carboxylic acid [1-(3,4-difluoro-benzyl)-1H-pyrazol-4-yl]-amide] | < 100 nM
O=C(Nc1c[nH]c(=O)c(-c2cc3ccccc3[nH]2)c1)c1cnn(Cc2ccc(C(F)(F)F)cc2)c1 [Example 25, 1-(4-Trifluoromethyl-benzyl)-1H-pyrazole-4-carboxylic acid [5-(1H-indol-2-yl)-6-oxo-1,6-dihydro-pyridin-3-yl]-amide] | 100 to 500 nM
CN(C)CCOc1ccc2[nH]c(-c3cc(NC(=O)c4cnn(Cc5ccccc5)c4)c[nH]c3=O)cc2c1 [Example 142, 1-Benzyl-1H-pyrazole-4-carboxylic acid {5-[5-(2-dimethylamino-ethoxy)-1H-indol-2-yl]-6-oxo-1,6-dihydro-pyridin-3-yl}-amide] | < 100 nM
Cc1ccc(Cn2cc(C(=O)Nc3c[nH]c(=O)c(-c4cc5ccccc5[nH]4)c3)cn2)cc1 [Example 29, 1-(4-Methyl-benzyl)-1H-pyrazole-4-carboxylic acid [5-(1H-indol-2-yl)-6-oxo-1,6-dihydro-pyridin-3-yl]-amide] | < 100 nM
COc1ccc(Cn2cc(NC(=O)c3c[nH]c(=O)c(-c4cc5ccccc5[nH]4)c3)cn2)cc1 [Example 2, 5-(1H-Indol-2-yl)-6-oxo-1,6-dihydro-pyridine-3-carboxylic acid [1-(4-methoxy-benzyl)-1H-pyrazol-4-yl]-amide] | 100 to 500 nM
CC1CCN(Cc2ccc3[nH]c(-c4cc(NC(=O)c5cnn([C@@H](C)c6ccccc6)c5)c[nH]c4=O)cc3c2)CC1 [Example 165, 1-((S)-1-Phenyl-ethyl)-1H-pyrazole-4-carboxylic acid {5-[5-(4-methyl-piperidin-1-ylmethyl)-1H-indol-2-yl]-6-oxo-1,6-dihydro-pyridin-3-yl}-amide] | < 100 nM
